Measurements from PMC8802628, “Selective activation of PFKL suppresses the phagocytic oxidative burst” (Cell, 2021).

What was measured:
[1] = target: T1, PFKL (K315R, V545L, and V582M), PFKL3Mut (Homo sapiens, UniProt P17858, K315R/V545L/V582M); test: Recombinant PFKL3Mut activity assay; format: biochemical; conditions: for activation of PFKL3Mut: 3.1 mM ATP, 1.5 mM F6P
T1 construct: made in house; host or cells: Sf9 insect cells (baculovirus)
T1 sequence (P17858 1-780 K315R/V545L/V582M): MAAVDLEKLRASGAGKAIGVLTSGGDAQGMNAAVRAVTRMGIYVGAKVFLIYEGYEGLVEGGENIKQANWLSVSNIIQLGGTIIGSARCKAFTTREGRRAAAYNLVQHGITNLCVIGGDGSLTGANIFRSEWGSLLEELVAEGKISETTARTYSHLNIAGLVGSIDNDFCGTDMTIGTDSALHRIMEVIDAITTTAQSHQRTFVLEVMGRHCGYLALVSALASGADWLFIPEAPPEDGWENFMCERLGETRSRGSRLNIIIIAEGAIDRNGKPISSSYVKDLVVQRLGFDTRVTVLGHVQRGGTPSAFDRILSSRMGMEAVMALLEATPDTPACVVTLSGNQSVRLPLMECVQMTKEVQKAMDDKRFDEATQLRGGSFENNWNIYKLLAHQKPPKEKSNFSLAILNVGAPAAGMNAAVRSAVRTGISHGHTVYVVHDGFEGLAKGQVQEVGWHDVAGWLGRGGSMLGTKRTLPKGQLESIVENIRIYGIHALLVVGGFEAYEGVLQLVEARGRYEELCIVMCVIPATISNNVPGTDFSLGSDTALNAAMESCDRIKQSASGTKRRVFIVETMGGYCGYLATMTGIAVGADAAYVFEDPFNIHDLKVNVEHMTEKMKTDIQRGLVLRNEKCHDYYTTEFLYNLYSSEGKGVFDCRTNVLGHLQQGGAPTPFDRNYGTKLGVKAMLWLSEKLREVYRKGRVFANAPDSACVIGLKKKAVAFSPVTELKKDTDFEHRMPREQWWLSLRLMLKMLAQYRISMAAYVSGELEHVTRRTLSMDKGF
Description: (§1) Recombinant N-terminal His-tagged human PFKL (NP_002617), PFKM (NP_000280), and PFKP (NM_002627.4) were generated as described ([Webb et al., 2015], [2017]). Point mutants of PFK1 were generated using the QuikChange Lightning kit (Aligent).
(§2) His-tagged PFK1 was expressed and purified as described with slight modifications ([Webb et al., 2015], [2017]). Briefly, baculovirus was generated using the Bac-to-Bac Expression system (Invitrogen). PFK1 was expressed in 2-5 × 10^6 sf9 cells at a multiplicity of infection of two for 48 h. Cells were lysed in 20 mM HEPES, pH 7.5, 80 mM potassium phosphate, 1 mM 2-mercapentoethanol, 10% glycerol, 10 mM imidazole, and EDTA-free Protease Inhibitor Cocktail (Abcam) with a Dounce homogenizer. The soluble lysate was incubated with HisPur cobalt resin (ThermoFisher Scientific). The resin was washed with 5 bead volumes lysis buffer, 10 bead volumes lysis buffer containing 2 M NaCl, and 5 further bead volumes lysis buffer. PFK1 was eluted in lysis buffer containing 100 mM imidazole. Fractions containing protein were pooled, passed over a desalting column equilibrated in freezing buffer [20 mM HEPES pH 7.5, 1 mM DTT, 500 μM ammonium sulfate, 5% glycerol, 1 mM ATP, and 100 μM EDTA] and concentrated using an Amicon Ultracel-30K Centrifugal Filter Unit (MilliporeSigma). Protein was quantified using a Bradford Protein Assay kit (ThermoFisher Scientific), and aliquotes frozen in liquid nitrogen for storage at −80°C.
(§3) PFK1 activity was determined using the rate of FBP production via an auxiliary enzyme assay adapted to a 96-well format ([Brüser et al., 2012]; [Webb et al., 2015]). The auxiliary enzymes aldolase, triosephosphate isomerase, and glycerol phosphate dehydrogenase were purchased from MilliporeSigma as ammonium sulfate slurries and desalted using an Amicon Ultracel-10K Centrifugal Filter Unit. For assays containing FBP, the rate of ADP production was determined using the auxiliary enzymes pyruvate kinase (PK) and lactate dehydrogenase (LDH) (MilliporeSigma) in a buffer containing 250 μM phosphoenolpyruvic acid, […] NADH, 50 mM HEPES pH 7.5, 100 mM KCl, 1 mM DTT, and effector concentrations as described in the text. The temperature was equilibrated to 25°C for 5 min before initiating the reaction 10 mM MgCl2. Absorbance at 340 nm was measured using a Varioskan LUX Multimode microplate reader (ThermoFisher). Kinetic parameters were generated by nonlinear regression analysis using Prism (GraphPad Software) and are the mean of a minimum of three measurements from two independent preparations of protein. One unit of activity was defined as the amount of enzyme that catalyzed the formation of 1 μmol of fructose 1,6-bisphosphate per min at 25°C. Assays for PFKM were performed at pH 7.0 due to the pH-dependence of ATP inhibition ([Trivedi and Danforth, 1966]).

[2] = target: T2, PFKM+pocket (R315 to lysine) (Homo sapiens, UniProt P08237, R315K); test: Recombinant PFKM+pocket activity assay; format: biochemical
T2 construct: made in house; host or cells: Sf9 insect cells (baculovirus)
T2 sequence (P08237 1-780 R315K): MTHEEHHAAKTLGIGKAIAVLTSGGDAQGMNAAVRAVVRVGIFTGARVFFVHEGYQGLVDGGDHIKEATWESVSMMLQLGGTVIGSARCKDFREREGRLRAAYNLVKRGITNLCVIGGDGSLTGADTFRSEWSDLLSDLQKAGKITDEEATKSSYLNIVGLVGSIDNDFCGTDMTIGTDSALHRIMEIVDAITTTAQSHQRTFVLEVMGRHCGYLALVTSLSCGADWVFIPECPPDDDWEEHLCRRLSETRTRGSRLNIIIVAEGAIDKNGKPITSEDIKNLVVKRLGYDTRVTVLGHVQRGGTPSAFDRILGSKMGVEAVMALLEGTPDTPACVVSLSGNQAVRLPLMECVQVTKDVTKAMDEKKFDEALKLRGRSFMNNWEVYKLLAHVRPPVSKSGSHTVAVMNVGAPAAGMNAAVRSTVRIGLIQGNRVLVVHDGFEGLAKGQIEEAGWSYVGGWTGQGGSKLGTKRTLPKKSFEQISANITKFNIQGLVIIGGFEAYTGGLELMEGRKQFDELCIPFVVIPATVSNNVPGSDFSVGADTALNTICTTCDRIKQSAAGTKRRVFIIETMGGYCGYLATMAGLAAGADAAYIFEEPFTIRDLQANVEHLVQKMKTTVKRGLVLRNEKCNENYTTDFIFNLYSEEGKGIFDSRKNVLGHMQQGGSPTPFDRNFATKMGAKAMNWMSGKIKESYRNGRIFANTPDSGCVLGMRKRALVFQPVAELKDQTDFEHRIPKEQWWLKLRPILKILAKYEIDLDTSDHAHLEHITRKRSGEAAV
Description: as §1, §2
as §3, with “Assays for PFKM were performed at pH 7.0 due to the pH-dependence of ATP inhibition ([Trivedi and Danforth, 1966]).” left out

[3] = PFKM+pocket, pH 7.0, 250 μM ATP

SMILES: O=C(CO)[C@@H](O)[C@H](O)[C@H](O)COP(=O)(O)O [F6P, fructose 6-phosphate]
- Vmax,F6P ([1]; PFKL3Mut, pH 7.5, 225 μM ATP): 17.36 ± 0.87 micromoles FBP per minute per milligram PFK1
- hF6P (Hill coefficient) ([1]; PFKL3Mut, pH 7.5, 225 μM ATP): 3.07 ± 0.87
- Vmax,F6P [2, 3]: 17.29 ± 0.93 micromoles FBP per minute per milligram PFK1
- hF6P (Hill coefficient) [2, 3]: 3.64 ± 0.69

SMILES: CC(=O)Nc1ccc2c(c1)OCc1cc(-c3ccccc3)nn1C2 [NA-5]
- EC50 ([2]; pH 7.0, 4.0 mM ATP, 1.0 mM F6P, mean ± SEM, read-out: EC50, activation of PFKM+pocket): 10.9 ± 1.28 nM

SMILES: CC(=O)Nc1ccc2c(c1)OCc1cc(-c3ccccc3C#CCCCO)nn1C2 [NA-11]
- activation of PFKL3Mut ([1]; at 200 nM): no activation observed
- activation of PFKL3Mut ([1]; at 1 μM): only partial activation observed
